Results: US8518945B2, “Pyrrolopyrazine kinase inhibitors” (Hoffmann-La Roche Inc., priority 2010, dated 2013)

Biological target: T1, h-jak3(810-1124) (JAK3: Recombinant human kinase domain) (Homo sapiens, UniProt P52333)
T1 construct: jak3(810- 1124)-sf9-c; made in house; host or cells: Sf9
Test: Determination of IC50 of Janus Kinase (JAK) inhibition: JAK3 radioactive end-point 33P-ATP kinase assay
Format: biochemical
Conditions: no additive; ATP 1.5 uM, peptide 50 uM, 20 minutes, room temperature; read-out: Ic50 h-jak3(810-1124)-sf9-c: no additive
Source text: Determination of IC50 of Janus Kinase (JAK) Inhibition:
Enzymes and peptide substrate used are described below: • JAK1: Recombinant human kinase domain from Invitrogen (Cat # PV4774) • JAK3: Recombinant human kinase domain from Millipore (Cat # 14-629) or prepared. • JAK2: Recombinant human kinase domain from Millipore (Cat # 14-640) • Substrate: N-terminally biotinylated 14-mer peptide derived from activation loop of JAK1 with sequence of the peptide substrate: Biotin-[sequence]
Assay conditions— used are described below: • Assay Buffer: JAK Kinase Buffer: 50 mM Hepes [pH 7.2], 10 mM MgCl2, 1 mM DTT, 1 mg/ml BSA. The assay was carried out in this buffer. • Assay Format The kinase activity of all three JAK kinases was measured using a radioactive, end-point assay and with trace amounts of ^33P-ATP. The assays were carried out in 96-well polypropylene plates. Experimental Method:
All concentrations were final in the reaction mixture and all incubations were carried at room temperature. […] Final concentration of DMSO in the reaction was 10%. • 2) Compounds were preincubated with enzyme (0.5 nM JAK3 (commercially available), 0.2 nM JAK3 (prepared), 1 nM JAK2, 5 nM JAK1) for 10 minutes. • 3) Reactions were initiated by the addition of a cocktail of the two substrates (ATP and peptide premixed in the JAK Kinase Buffer). In the JAK2/JAK3 assays, ATP and the peptide were used at concentrations of 1.5 uM and 50 uM, respectively. JAK1 assay was carried out at an ATP concentration of 10 uM and a peptide concentration of 50 uM. • 4) The duration of the assay for JAK2 and JAK3 is 20 minutes. JAK1 assay was carried out for 40 minutes. With all three enzymes, reactions were terminated by the addition of 0.5M EDTA to a final concentration of 100 mM. • 5) 25 ul of terminated reactions were transferred to 150 ul of a 7.5% (v/v) slurry of streptavidin-coated sepharose beads in MgCl2- and CaCl2-free 1× Phosphate Buffered Saline containing 50 mM of EDTA in 96-well, 1.2 um MultiScreen-BV filter plates. • 6) After a 30-minute incubation, the beads were washed under vacuum with the following buffers: • a. 3 to 4 washes with 200 ul of 2M NaCl. • b. 3 to 4 washes with 200 ul of 2M NaCl plus 1% (v/v) phosphoric acid. • c. 1 wash with water. • 7) Washed plates were dried in a 60° C. oven for between 1 to 2 hours. • 8) 70 ul of Microscint 20 scintillation fluid was added to each well of filter plates and after at least 30 minutes of incubation, radioactive counts were measured in a Perkinelmer microplate scintillation counter.

T1 sequence (P52333 810-1124): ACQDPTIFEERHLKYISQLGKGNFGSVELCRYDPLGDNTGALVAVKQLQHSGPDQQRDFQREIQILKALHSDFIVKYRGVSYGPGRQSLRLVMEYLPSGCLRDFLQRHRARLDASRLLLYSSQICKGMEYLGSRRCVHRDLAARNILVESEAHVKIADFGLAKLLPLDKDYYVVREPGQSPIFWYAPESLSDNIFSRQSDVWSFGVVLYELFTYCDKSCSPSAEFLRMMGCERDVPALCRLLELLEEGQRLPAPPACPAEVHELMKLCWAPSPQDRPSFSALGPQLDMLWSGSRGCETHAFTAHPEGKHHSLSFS

Compound | IC50 [nM]
N#CC1CCN(C(=O)[C@H](NC(=O)c2c[nH]c3ncc(C4CC4)nc23)C2CCCC2)CC1 [Example I-45, 2-Cyclopropyl-5H-pyrrolo[2,3-b]pyrazine-7-carboxylic acid [(R)-2-(4-cyano-piperidin-1-yl)-1-cyclopentyl-2-oxo-ethyl]-amide] | 0.7
N#CC1CCN(C(=O)[C@@H](NC(=O)c2c[nH]c3ncc(C4CC4)nc23)C2(C(F)(F)F)CC2)CC1 [Example I-46, 2-Cyclopropyl-5H-pyrrolo[2,3-b]pyrazine-7-carboxylic acid [(S)-2-(4-cyano-piperidin-1-yl)-2-oxo-1-(1-trifluoromethyl-cyclopropyl)-ethyl]-amide] | 4.29
N#CC1CCN(C(=O)[C@H](NC(=O)c2c[nH]c3ncc(C4CC4)nc23)C2(C(F)(F)F)CC2)CC1 [Example I-47, 2-Cyclopropyl-5H-pyrrolo[2,3-b]pyrazine-7-carboxylic acid [(R)-2-(4-cyano-piperidin-1-yl)-2-oxo-1-(1-trifluoromethyl-cyclopropyl)-ethyl]-amide] | 1.04
N#CC1CCN(C(=O)[C@@H](Cc2ccccc2)NC(=O)c2c[nH]c3ncc(C4CC4)nc23)CC1 [Example I-48, 2-Cyclopropyl-5H-pyrrolo[2,3-b]pyrazine-7-carboxylic acid [(R)-1-benzyl-2-(4-cyano-piperidin-1-yl)-2-oxo-ethyl]-amide] | 0.6
CC(C)(C)C[C@@H](NC(=O)c1c[nH]c2ncc(C3CC3)nc12)C(=O)N1CCC(C#N)CC1 [Example I-49, 2-Cyclopropyl-5H-pyrrolo[2,3-b]pyrazine-7-carboxylic acid [(R)-1-(4-cyano-piperidine-1-carbonyl)-3,3-dimethyl-butyl]-amide] | 1.01
CC(C)(C)[C@@H](NC(=O)c1c[nH]c2ncc(-c3cc(C(F)(F)F)cc(C(F)(F)F)c3)nc12)C(=O)N1CCC(C#N)CC1 [Example I-50, 2-(3,5-Bis-trifluoromethyl-phenyl)-5H-pyrrolo[2,3-b]pyrazine-7-carboxylic acid [(R)-1-(4-cyano-piperidine-1-carbonyl)-2,2-dimethyl-propyl]-amide] | 0.4
CC(C)(C)[C@@H](NC(=O)c1c[nH]c2ncc(-c3cccc(N4CCCC4)c3)nc12)C(=O)N1CCC(C#N)CC1 [Example I-51, 2-(3-Pyrrolidin-1-yl-phenyl)-5H-pyrrolo[2,3-b]pyrazine-7-carboxylic acid [(R)-1-(4-cyano-piperidine-1-carbonyl)-2,2-dimethyl-propyl]-amide] | 111
CC(C)(C)[C@@H](NC(=O)c1c[nH]c2ncc(C3CC3)nc12)C(=O)N1CCC(F)(F)CC1 [Example I-52, 2-Cyclopropyl-5H-pyrrolo[2,3-b]pyrazine-7-carboxylic acid [(R)-1-(4,4-difluoro-piperidine-1-carbonyl)-2,2-dimethyl-propyl]-amide] | 440
Cn1cc(-c2cnc3[nH]cc(C(=O)N[C@@H](C(=O)N4CC(C#N)C4)C(C)(C)C)c3n2)cn1 [Example I-53, 2-(1-Methyl-1H-pyrazol-4-yl)-5H-pyrrolo[2,3-b]pyrazine-7-carboxylic acid [(R)-1-(3-cyano-azetidine-1-carbonyl)-2,2-dimethyl-propyl]-amide] | 279
CC(C)(C)[C@@H](NC(=O)c1c[nH]c2ncc(-c3cn[nH]c3)nc12)C(=O)N1CCC(C#N)CC1 [Example I-54, 2-(1H-Pyrazol-4-yl)-5H-pyrrolo[2,3-b]pyrazine-7-carboxylic acid [(R)-1-(4-cyano-piperidine-1-carbonyl)-2,2-dimethyl-propyl]-amide] | 14.9
Cn1cc(-c2cnc3[nH]cc(C(=O)N[C@@H](C(=O)N4CCC(C#N)CC4)C(C)(C)C)c3n2)cn1 [Example I-55, 2-(1-Methyl-1H-pyrazol-4-yl)-5H-pyrrolo[2,3-b]pyrazine-7-carboxylic acid [(R)-1-(4-cyano-piperidine-1-carbonyl)-2,2-dimethyl-propyl]-amide] | 1.52
CCn1cc(-c2cnc3[nH]cc(C(=O)N[C@@H](C(=O)N4CCC(C#N)CC4)C(C)(C)C)c3n2)cn1 [Example I-56, 2-(1-Ethyl-1H-pyrazol-4-yl)-5H-pyrrolo[2,3-b]pyrazine-7-carboxylic acid [(R)-1-(4-cyano-piperidine-1-carbonyl)-2,2-dimethyl-propyl]-amide] | 0.77
CC(=O)N1CCN(C(=O)[C@H](NC(=O)c2c[nH]c3ncc(C4CC4)nc23)C(C)(C)C)CC1 [Example I-57, 2-Cyclopropyl-5H-pyrrolo[2,3-b]pyrazine-7-carboxylic acid [(R)-1-(4-acetyl-piperazine-1-carbonyl)-2,2-dimethyl-propyl]-amide] | ≤ 0.32
CC(C)(C)[C@@H](NC(=O)c1c[nH]c2ncc(C3CC3)nc12)C(=O)N1CCC(C(F)(F)F)CC1 [Example I-58, 2-Cyclopropyl-5H-pyrrolo[2,3-b]pyrazine-7-carboxylic acid [(R)-2,2-dimethyl-1-(4-trifluoromethyl-piperidine-1-carbonyl)-propyl]-amide] | 0.49
Cn1cc(-c2cnc3[nH]cc(C(=O)N[C@@H](C(=O)N4CC[C@@H](C#N)C4)C(C)(C)C)c3n2)cn1 [Example I-60, 2-(1-Methyl-1H-pyrazol-4-yl)-5H-pyrrolo[2,3-b]pyrazine-7-carboxylic acid [(R)-1-((R)-3-cyano-pyrrolidine-1-carbonyl)-2,2-dimethyl-propyl]-amide] | 0.79
N#CC1CCN(C(=O)[C@H](NC(=O)c2c[nH]c3ncc(C4CC4)nc23)C2CC2)CC1 [Example I-61, 2-Cyclopropyl-5H-pyrrolo[2,3-b]pyrazine-7-carboxylic acid [(R)-2-(4-cyano-piperidin-1-yl)-1-cyclopropyl-2-oxo-ethyl]-amide] | 0.42
COc1cc(-c2cnc3[nH]cc(C(=O)N[C@@H](C(=O)N4CCC(C#N)CC4)C(C)(C)C)c3n2)cc(OC)c1OC [Example I-64, 2-(3,4,5-Trimethoxy-phenyl)-5H-pyrrolo[2,3-b]pyrazine-7-carboxylic acid [(R)-1-(4-cyano-piperidine-1-carbonyl)-2,2-dimethyl-propyl]-amide] | 94.9
CC(C)(C)[C@@H](NC(=O)c1c[nH]c2ncc(C3CC3)nc12)C(=O)N1CCC(O)(c2ccccc2)CC1 [Example I-65, 2-Cyclopropyl-5H-pyrrolo[2,3-b]pyrazine-7-carboxylic acid [(R)-1-(4-hydroxy-4-phenyl-piperidine-1-carbonyl)-2,2-dimethyl-propyl]-amide] | 0.87
N#CC1CN(C(=O)[C@H](NC(=O)c2c[nH]c3ncc(C4CC4)nc23)C2CC2)C1 [Example I-68, 2-Cyclopropyl-5H-pyrrolo[2,3-b]pyrazine-7-carboxylic acid [(R)-2-(3-cyano-azetidin-1-yl)-1-cyclopropyl-2-oxo-ethyl]-amide] | 0.58
CC(C)C[C@@H](NC(=O)c1c[nH]c2ncc(-c3cnn(C)c3)nc12)C(=O)N1CC(C#N)C1 [Example I-69, 2-(1-Methyl-1H-pyrazol-4-yl)-5H-pyrrolo[2,3-b]pyrazine-7-carboxylic acid [(R)-1-(3-cyano-azetidine-1-carbonyl)-3-methyl-butyl]-amide] | ≤ 0.32
CCn1cc(-c2cnc3[nH]cc(C(=O)N[C@@H](C(=O)N4CCC(C#N)CC4)C4CC4)c3n2)cn1 [Example I-71, 2-(1-Ethyl-1H-pyrazol-4-yl)-5H-pyrrolo[2,3-b]pyrazine-7-carboxylic acid [(R)-2-(4-cyano-piperidin-1-yl)-1-cyclopropyl-2-oxo-ethyl]-amide] | 3.92
CC1(O)CCN(C(=O)[C@H](NC(=O)c2c[nH]c3ncc(C4CC4)nc23)C(C)(C)C)CC1 [Example I-73, 2-Cyclopropyl-5H-pyrrolo[2,3-b]pyrazine-7-carboxylic acid [(R)-1-(4-hydroxy-4-methyl-piperidine-1-carbonyl)-2,2-dimethyl-propyl]-amide] | 3.34
CCn1cc(-c2cnc3[nH]cc(C(=O)N[C@H](C(=O)N4CCC(C#N)CC4)C4(C(F)(F)F)CC4)c3n2)cn1 [Example I-74, 2-(1-Ethyl-1H-pyrazol-4-yl)-5H-pyrrolo[2,3-b]pyrazine-7-carboxylic acid [(S)-2-(4-cyano-piperidin-1-yl)-2-oxo-1-(1-trifluoromethyl-cyclopropyl)-ethyl]-amide] | 1.13
Cn1cc(-c2cnc3[nH]cc(C(=O)N[C@@H](C(=O)N4CC(C#N)C4)C4CCCCC4)c3n2)cn1 [Example I-76, 2-(1-Methyl-1H-pyrazol-4-yl)-5H-pyrrolo[2,3-b]pyrazine-7-carboxylic acid [(R)-2-(3-cyano-azetidin-1-yl)-1-cyclohexyl-2-oxo-ethyl]-amide] | 11.8
Cn1cnc(-c2cnc3[nH]cc(C(=O)N[C@@H](C(=O)N4CCC(C#N)CC4)C(C)(C)C)c3n2)c1 [Example I-77, 2-(1-Methyl-1H-imidazol-4-yl)-5H-pyrrolo[2,3-b]pyrazine-7-carboxylic acid [(R)-1-(4-cyano-piperidine-1-carbonyl)-2,2-dimethyl-propyl]-amide] | ≤ 0.32
CC(C)(C)[C@@H](NC(=O)c1c[nH]c2ncc(-c3cnn(C4CC4)c3)nc12)C(=O)N1CCC(C#N)CC1 [Example I-78, 2-(1-Cyclopropyl-1H-pyrazol-4-yl)-5H-pyrrolo[2,3-b]pyrazine-7-carboxylic acid [(R)-1-(4-cyano-piperidine-1-carbonyl)-2,2-dimethyl-propyl]-amide] | ≤ 0.32
CC(C)(C)[C@@H](NC(=O)c1c[nH]c2ncc(-c3cnn(CC(F)(F)F)c3)nc12)C(=O)N1CCC(C#N)CC1 [Example I-79, 2-[1-(2,2,2-Trifluoro-ethyl)-1H-pyrazol-4-yl]-5H-pyrrolo[2,3-b]pyrazine-7-carboxylic acid [(R)-1-(4-cyano-piperidine-1-carbonyl)-2,2-dimethyl-propyl]-amide] | ≤ 0.32
Cn1cc(-c2cnc3[nH]cc(C(=O)N[C@@H](C(=O)N4CC[C@H](C#N)C4)C4CC4)c3n2)cn1 [Example I-81, 2-(1-Methyl-1H-pyrazol-4-yl)-5H-pyrrolo[2,3-b]pyrazine-7-carboxylic acid [(R)-2-((S)-3-cyano-pyrrolidin-1-yl)-1-cyclopropyl-2-oxo-ethyl]-amide] | ≤ 0.32
